Source: PubChem BioAssay (NCI)
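Briefly, cells in 96-well plates were exposed to five compound concentrations for 48 h, and endpoints were estimated by linear interpolation. GI50 marks 50% less growth. TGI marks complete inhibition of growth.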

Assays:
Assay in all cases: inhibition of tumour cell growth, NCI panel, 48 h
[1] = system: 786-0 renal
[2] = system: A498 renal
[3] = system: A549 NSCLC
[4] = system: ACHN renal
[5] = system: BT-549 breast
[6] = system: CAKI-1 renal
[7] = system: CCRF-CEM leukemia
[8] = system: COLO 205 colon
[9] = system: DU-145 prostate
[10] = system: EKVX NSCLC
[11] = system: HCC-2998 colon
[12] = system: HCT-116 colon
[13] = system: HCT-15 colon
[14] = system: HL-60(TB) leukemia
[15] = system: HOP-62 NSCLC
[16] = system: HOP-92 NSCLC
[17] = system: HS 578T breast
[18] = system: HT29 colon
[19] = system: IGROV1 ovarian
[20] = system: K-562 leukemia
[21] = system: KM12 colon
[22] = system: LOX IMVI melanoma
[23] = system: M14 melanoma
[24] = system: MALME-3M melanoma
[25] = system: MCF7 breast
[26] = system: MDA-MB-231 breast
[27] = system: MDA-MB-435
[28] = system: MOLT-4 leukemia
[29] = system: NCI-H226 lung
[30] = system: NCI-H23 lung
[31] = system: NCI-H460 lung
[32] = system: NCI-H522 lung
[33] = system: NCI/ADR-RES ovarian
[34] = system: OVCAR-3 ovarian
[35] = system: OVCAR-4 ovarian
[36] = system: OVCAR-5 ovarian
[37] = system: OVCAR-8 ovarian
[38] = system: PC-3 prostate
[39] = system: RPMI-8226 leukemia
[40] = system: RXF 393 renal
[41] = system: SF-268 CNS
[42] = system: SF-295 CNS
[43] = system: SF-539 CNS
[44] = system: SK-MEL-2 melanoma
[45] = system: SK-MEL-28 melanoma
[46] = system: SK-MEL-5 melanoma
[47] = system: SK-OV-3 ovarian
[48] = system: SN12C renal
[49] = system: SNB-19 CNS
[50] = system: SNB-75 CNS
[51] = system: SR leukemia
[52] = system: SW-620 colon
[53] = system: T-47D breast
[54] = system: TK-10 renal
[55] = system: U251 CNS
[56] = system: UACC-257 melanoma
[57] = system: UACC-62 melanoma
[58] = system: UO-31 renal

COc1ccc(C(=S)N2CCN(c3cccc(Cl)c3)CC2)cc1
GI50 [1]: > 100 µM
TGI [1]: > 100 µM
GI50 [2]: > 100 µM
TGI [2]: > 100 µM
GI50 [3]: > 100 µM
TGI [3]: > 100 µM
GI50 [4]: > 100 µM
TGI [4]: > 100 µM
GI50 [5]: > 100 µM
TGI [5]: > 100 µM
GI50 [6]: > 100 µM
TGI [6]: > 100 µM
GI50 [7]: > 100 µM
TGI [7]: > 100 µM
GI50 [8]: > 100 µM
TGI [8]: > 100 µM
GI50 [9]: > 100 µM
TGI [9]: > 100 µM
GI50 [10]: 91.7 µM
TGI [10]: > 100 µM
GI50 [11]: > 100 µM
TGI [11]: > 100 µM
GI50 [12]: > 100 µM
TGI [12]: > 100 µM
GI50 [13]: > 100 µM
TGI [13]: > 100 µM
GI50 [14]: > 100 µM
TGI [14]: > 100 µM
GI50 [15]: > 100 µM
TGI [15]: > 100 µM
GI50 [16]: 17.2 µM
TGI [16]: > 100 µM
GI50 [17]: > 100 µM
TGI [17]: > 100 µM
GI50 [18]: > 100 µM
TGI [18]: > 100 µM
GI50 [19]: 58.8 µM
TGI [19]: > 100 µM
GI50 [20]: 72.8 µM
TGI [20]: > 100 µM
GI50 [21]: > 100 µM
TGI [21]: > 100 µM
GI50 [22]: > 100 µM
TGI [22]: > 100 µM
GI50 [23]: > 100 µM
TGI [23]: > 100 µM
GI50 [24]: > 100 µM
TGI [24]: > 100 µM
GI50 [25]: 75 µM
TGI [25]: > 100 µM
GI50 [26]: 43.9 µM
TGI [26]: > 100 µM
GI50 [27]: 62 µM
TGI [27]: > 100 µM
GI50 [28]: > 100 µM
TGI [28]: > 100 µM
GI50 [29]: > 100 µM
TGI [29]: > 100 µM
GI50 [30]: > 100 µM
TGI [30]: > 100 µM
GI50 [31]: > 100 µM
TGI [31]: > 100 µM
GI50 [32]: 15.3 µM
TGI [32]: > 100 µM
GI50 [33]: 97 µM
TGI [33]: > 100 µM
GI50 [34]: > 100 µM
TGI [34]: > 100 µM
GI50 [35]: > 100 µM
TGI [35]: > 100 µM
GI50 [36]: > 100 µM
TGI [36]: > 100 µM
GI50 [37]: > 100 µM
TGI [37]: > 100 µM
GI50 [38]: 38.6 µM
TGI [38]: > 100 µM
GI50 [39]: 45.4 µM
TGI [39]: > 100 µM
GI50 [40]: > 100 µM
TGI [40]: > 100 µM
GI50 [41]: > 100 µM
TGI [41]: > 100 µM
GI50 [42]: 95.9 µM
TGI [42]: > 100 µM
GI50 [43]: > 100 µM
TGI [43]: > 100 µM
GI50 [44]: > 100 µM
TGI [44]: > 100 µM
GI50 [45]: > 100 µM
TGI [45]: > 100 µM
GI50 [46]: 84.2 µM
TGI [46]: > 100 µM
GI50 [47]: > 100 µM
TGI [47]: > 100 µM
GI50 [48]: > 100 µM
TGI [48]: > 100 µM
GI50 [49]: > 100 µM
TGI [49]: > 100 µM
GI50 [50]: 45.1 µM
TGI [50]: > 100 µM
GI50 [51]: > 100 µM
TGI [51]: > 100 µM
GI50 [52]: > 100 µM
TGI [52]: > 100 µM
GI50 [53]: 65.8 µM
TGI [53]: > 100 µM
GI50 [54]: > 100 µM
TGI [54]: > 100 µM
GI50 [55]: > 100 µM
TGI [55]: > 100 µM
GI50 [56]: > 100 µM
TGI [56]: > 100 µM
GI50 [57]: 78.2 µM
TGI [57]: > 100 µM
GI50 [58]: 43.3 µM
TGI [58]: > 100 µM
